Test results: US20120083464A1, “NEUROPROTECTIVE PROPERTIES OF 5'-METHYLTHIOADENOSINE” (priority 2009, published 2012)
“Also recorded” adds a separate entry of the source.

Tests used:
[1] = tested on: PC12 cells; assay: Neurite differentiation assay in PC12 cells; assay type: cell-based, rat
Method: The PC12 cells were maintained in HAM's medium at 37° C., supplemented with 2.5% of fetal bovine serum, 15% of horse serum and penicillin/streptomycine. The neurite differentiation assays were conducted using 24-well plates treated with collagen in HAM's medium supplemented with 0.5% of fetal bovine serum and penicillin/streptomycine. NGF (100 ng/ml) or MTA at different concentrations (25 μM, 100 μM and 2 mM) were added to the cultures and, after four days, the percentage of cells with neurites longer than twice cell body. In each experiment a minimum of 300 cells were randomly counted.

[2] = tested on: Corticospinal tract-YFP mice with chronic EAE; assay: Chronic EAE (model of progressive multiple sclerosis), clinical score and axonal density; assay type: in vivo, mice (C57B6 background)
Description: Chronic EAE was induced in Corticospinal tract-YFP mice (C57B6 background; see Bareyre et al., Nat Med. 2005 December; 11(12):1355-60) immunized with MOG. The fluorescence labelling of motor axons, allows an accurate quantification of axonal damage during EAE.
1. Align spinal cords of all animals and cut out the following pieces of the spinal cord at the same level in all animals: a) a piece of the cervical spinal cord (about 1 cm in length) starting around at the upper cervical level around C1/2 (this will allow you to determine the number of CST fibers that enter the spinal cord); b) a piece of the lumbar spinal cord (about 1 cm in length) starting around the mid-lumbar level L2/3 (this will allow you to determine the number of fibers that reach the lumbar spinal cord).
5. Mount the tissue and analyze the sections using confocal microscopy—use a high-resolution objectives e.g. a 60× oil objective and take a single image plan covering the entire corticospinal tract.
6. Then simple count the number of dots (=number of fibers)—we usually do this blinded on 3-5 sections and then calculate the average for the CST as the CST—especially in the cervical spinal cord which contains many fibers it might be easier to estimate the total number of cervical CST fibers based on counts of several CST areas with a defined size. […]

[3] = tested on: CA1 hippocampal neurons; assay: Global ischemia (four-vessel occlusion, 10 min), Fluoro jade staining; assay type: in vivo, Wistar rats; details: P<0.01
Method: Before surgical procedures, animals were fasted overnight. The rats were subjected to middle cerebral artery occlusion (MCAO) for 90 min using the intraluminal filament model as described previously (Rickhag et al, 2006; J Neurochem 96:14-29). Blood flow was monitored transcraneally with a doppler laser (Perimed). All physiologic parameters of animals included in the study were within normal ranges and included animals showing typical ischemia-induced behavioral deficits, rotational asymmetry, and dysfunctional limb placement. Rectal and body temperature was maintained at 37° C. during surgery and ischemia with a heating pad. Transient forebrain ischemia was induced by occlusion of the vertebral and common carotid arteries for 10 min according to the method described by Pulsinelli and Brierley (1979; Stroke 10, 267-272.). Criteria for forebrain ischemia were bilateral loss of the righting reflex, paw extension and mydriasis. […]
The animals were treated with MTA (30 or 100 mg/kg i.p.), twice daily reconstituted in Tris 300 mM, or placebo (Tris 300 mM) starting at 30 min of the onset of ischemia. […]

[4] = tested on: cerebellar organotypic cultures; assay: LPS neuroinflammation model in cerebellar organotypic cultures: demyelination and axonal damage (immunofluorescence, Western blot); assay type: cell-based, C57/B16 wild type mice; details: 192 μM MTA pre-treatment for half hour, 15 μg/ml LPS, 24 hrs
Description: Organotypic cultures model of neuroinflammation is based on previous observations in which systemic injections of lipopolysaccharide (LPS) in mice spinal cord induce inflammation, demyelinization and Wallerian degeneration. In mice cerebellar organotypic cultures, LPS induces microglia activation with consequent demyelination and axonal damage. In particular, LPS induces TNF-alpha, IL1-beta release, axonal swelling and end bulbs due to axonal transport block, and a decrease of axonal density. Organotypic cultures represent the best model to represent in vivo mechanisms since they maintain cell-cell interaction and organotypic structure of brain region studied. In this way, this in vitro neuroinflammation model reproduces the microglia activation, demyelinization and axonal damage phenomena observed in MS.
Cerebellar organotypic cultures which were pre-treated for half hour with 192 μM of MTA and 15 μg/ml of LPS have been used to generate neuroinflammation model.
2. Data analysis: Western blot, immunofluorescence and ELISA analysis were performed using conventional techniques.

[5] = tested on: MAPK, p38/SAPK and STAT3 pathways; assay: Intracellular phosphorylation in PC12 cells (Luminex); assay type: cell-based, rat; details: PC12 cells after MTA-induced differentiation, four days
Description: The phosphorylation of different intracellular proteins was detected using Luminex technology. After the neurite differentiation assay the PC12 cells were received in lysis buffer and tested using different antibodies: total Akt/PKB, total p38/SAPK, total STAT3, total ERK/MAPK, total P70 S6 Kinase, phosphorolyated Akt/PKB (Ser473), phosphorylated Akt/PKB (Thr 308), phosphorylated p38/SAPK (Thr180/Tyr182), phosphorilyated STAT 3 (Tyr705/Ser 727), phosphorylated ERK/MAPK (Thr185/Tyr187) and phosphorylated P70 S6 Kinase (Thr412).

Structure (SMILES): CSC[C@H]1O[C@@H](n2cnc3c(N)ncnc32)[C@H](O)[C@@H]1O [MTA, 5′-methylthioadenosine]
- neurite development at the highest concentration tested ([1]; MTA 5 mM): does not affect neurite development
- most optimal MTA concentration for formation of new neurites ([1]; four days): 1 mM
- neurite differentiation (formation of new processes) ([1]; four days, concentration dependent): develop new processes
- clinical symptoms (EAE clinical score) versus placebo ([2]; MTA 96 μMol/Kg i.p. daily from first day with EAE score of 2 or higher): amelioration of the clinical symptoms
- axonal density in lumbar and cervical spinal cord versus placebo ([2]; MTA 96 μMol/Kg i.p. daily, chronic phase): significantly higher axonal density
- CA1 hippocampal neuron cell death (Fluoro jade fluorescence) ([3]; 10 min global ischemia, MTA i.p. twice daily from 30 min post-ischemia, 7 days): protects
- lower levels of dying cells in the CA1 region versus vehicle (Fluoro jade) ([3]; MTA 30 mg/kg i.p. twice daily, 7 days of reperfusion): about 50%
- demyelination and axonal damage (MBP/NFL immunofluorescence, CNPase/APP Western blot) [4]: prevents; also recorded: absents
- phosphorylation of intracellular proteins: MAPK, p38/SAPK and STAT3 pathways [5]: activation
